{
  "source": "patent US5135857A",
  "about": "“Process for the preparation of de-mannosyl teicoplanin derivatives” (Gruppo Lepetit S.p.A., priority 1987, dated 1992)",
  "type_in_all_cases": "cell-based",
  "key": {"[1]": {"tested_on": "Staph. epidermidis L147 ATCC 12228 (coagulase negative)", "assay": "MIC broth dilution test, Staph. epidermidis", "details": "Isosensitest broth, 24 h", "experimental": "(§1) Culture media and growth conditions for MIC (minimal inhibitory concentration) determinations were as follows: Isosensitest broth (Oxoid), 24 h, for staphylococci, Strep. faecalis and Gram-negative bacteria ( Escherichia coli); Todd-Hewitt broth (Difco), 24 h for other streptococcal species; GC base broth (Difco)+1% Isovitalex (BBL), 48 h, CO2 -enriched atmosphere for Neisseria gonorrhoeae; Brain Heart broth (Difco)+1% Supplement C (Difco), 48 h for Haemophilus influenzae; Inocula were of about 10^4 -10^5 colony-forming units/ml for broth dilution MICs."}, "Strep. pyogenes L49 C203": {"tested_on": "Strep. pyogenes L49 C203", "assay": "MIC broth dilution test, Strep. pyogenes", "details": "Todd-Hewitt broth, 24 h", "experimental": "as §1"}, "[2]": {"tested_on": "Strip. pneumoniae L44 UC41", "assay": "MIC broth dilution test, Strep. pneumoniae", "details": "Todd-Hewitt broth, 24 h", "experimental": "as §1"}, "[3]": {"tested_on": "Strep. faecalis L149 ATCC 7080", "assay": "MIC broth dilution test, Strep. faecalis", "details": "Isosensitest broth, 24 h", "experimental": "as §1"}, "[4]": {"tested_on": "Strep. mitis L796 (clinical isolate)", "assay": "MIC broth dilution test, Strep. mitis", "details": "Todd-Hewitt broth, 24 h", "experimental": "as §1"}, "[5]": {"tested_on": "Neisseria gonorrhoeae L997 ISM68/126", "assay": "MIC broth dilution test, Neisseria gonorrhoeae", "details": "GC base broth + 1% Isovitalex, 48 h, CO2-enriched atmosphere", "experimental": "as §1"}, "[6]": {"tested_on": "Haemophilus influenzae L970 type b ATCC 19418", "assay": "MIC broth dilution test, Haemophilus influenzae", "details": "Brain Heart broth + 1% Supplement C, 48 h", "experimental": "as §1"}, "[7]": {"tested_on": "Staph. haemolyticus L602 (clinical isolate)", "assay": "MIC broth dilution test, Staph. haemolyticus", "details": "Isosensitest broth, 24 h", "experimental": "as §1"}},
  "data": [
    {"smiles": "CC(=O)N[C@H]1[C@H](OC2c3ccc(c(Cl)c3)Oc3cc4cc(c3O[C@@H]3O[C@H](CO)[C@@H](O)[C@H](O)[C@H]3NC(=O)CCCCCCC(C)C)Oc3ccc(cc3Cl)CC3NC(=O)C(N)c5ccc(O)c(c5)Oc5cc(O)cc(c5)C(NC3=O)C(=O)NC4C(=O)NC3C(=O)NC2C(=O)NC(C(=O)O)c2cc(O)cc(O)c2-c2cc3ccc2O)O[C@H](CO)[C@@H](O)[C@@H]1O", "note": "(stereo partly shown) [DM-TA2-2, de-mannosyl teicoplanin complex component 2]", "values": [
      {"measurement": "M.I.C.", "setting": "[1]", "value": 0.063, "unit": "microgram/ml"},
      {"measurement": "M.I.C.", "setting": "Strep. pyogenes L49 C203", "value": 0.063, "unit": "microgram/ml"},
      {"measurement": "M.I.C.", "setting": "[2]", "value": 0.063, "unit": "microgram/ml"},
      {"measurement": "M.I.C.", "setting": "[3]", "value": 0.063, "unit": "microgram/ml"},
      {"measurement": "M.I.C.", "setting": "[4]", "value": 0.063, "unit": "microgram/ml"},
      {"measurement": "M.I.C.", "setting": "[5]", "value": 32, "unit": "microgram/ml"},
      {"measurement": "M.I.C.", "setting": "[6]", "value": 64, "unit": "microgram/ml"},
      {"measurement": "M.I.C.", "setting": "[7]", "value": 0.5, "unit": "microgram/ml"}
    ]},
    {"smiles": "CCC(C)CCCCCCC(=O)N[C@H]1[C@H](Oc2c3cc4cc2Oc2ccc(cc2Cl)C(O[C@@H]2O[C@H](CO)[C@@H](O)[C@H](O)[C@H]2NC(C)=O)C2NC(=O)C(NC(=O)C4NC(=O)C4NC(=O)C(Cc5ccc(c(Cl)c5)O3)NC(=O)C(N)c3ccc(O)c(c3)Oc3cc(O)cc4c3)c3ccc(O)c(c3)-c3c(O)cc(O)cc3C(C(=O)O)NC2=O)O[C@H](CO)[C@@H](O)[C@@H]1O", "note": "(stereo partly shown) [DM-TA2-4, de-mannosyl teicoplanin complex component 4]", "values": [
      {"measurement": "M.I.C.", "setting": "[1]", "value": 0.063, "unit": "microgram/ml"},
      {"measurement": "M.I.C.", "setting": "Strep. pyogenes L49 C203", "value": 0.063, "unit": "microgram/ml"},
      {"measurement": "M.I.C.", "setting": "[2]", "value": 0.063, "unit": "microgram/ml"},
      {"measurement": "M.I.C.", "setting": "[3]", "value": 0.063, "unit": "microgram/ml"},
      {"measurement": "M.I.C.", "setting": "[5]", "value": 32, "unit": "microgram/ml"},
      {"measurement": "M.I.C.", "setting": "[6]", "value": 64, "unit": "microgram/ml"},
      {"measurement": "M.I.C.", "setting": "[7]", "value": 0.5, "unit": "microgram/ml"}
    ]},
    {"smiles": "CC(=O)N[C@H]1[C@H](OC2c3ccc(c(Cl)c3)Oc3cc4cc(c3O[C@@H]3O[C@H](CO)[C@@H](O)[C@H](O)[C@H]3NC(=O)CCCCCCCC(C)C)Oc3ccc(cc3Cl)CC3NC(=O)C(N)c5ccc(O)c(c5)Oc5cc(O)cc(c5)C(NC3=O)C(=O)NC4C(=O)NC3C(=O)NC2C(=O)NC(C(=O)O)c2cc(O)cc(O)c2-c2cc3ccc2O)O[C@H](CO)[C@@H](O)[C@@H]1O", "note": "(stereo partly shown) [DM-TA2-5, de-mannosyl teicoplanin complex component 5]", "values": [
      {"measurement": "M.I.C.", "setting": "[1]", "value": 0.063, "unit": "microgram/ml"},
      {"measurement": "M.I.C.", "setting": "Strep. pyogenes L49 C203", "value": 0.063, "unit": "microgram/ml"},
      {"measurement": "M.I.C.", "setting": "[2]", "value": 0.063, "unit": "microgram/ml"},
      {"measurement": "M.I.C.", "setting": "[3]", "value": 0.063, "unit": "microgram/ml"},
      {"measurement": "M.I.C.", "setting": "[4]", "value": 0.063, "unit": "microgram/ml"},
      {"measurement": "M.I.C.", "setting": "[5]", "value": 32, "unit": "microgram/ml"},
      {"measurement": "M.I.C.", "setting": "[6]", "value": 32, "unit": "microgram/ml"},
      {"measurement": "M.I.C.", "setting": "[7]", "value": 0.25, "unit": "microgram/ml"}
    ]},
    {"smiles": "CCCCCCCCCC(=O)N[C@H]1[C@H](Oc2c3cc4cc2Oc2ccc(cc2Cl)C(O[C@@H]2O[C@H](CO)[C@@H](O)[C@H](O)[C@H]2NC(C)=O)C2NC(=O)C(NC(=O)C4NC(=O)C4NC(=O)C(Cc5ccc(c(Cl)c5)O3)NC(=O)C(N)c3ccc(O)c(c3)Oc3cc(O)cc4c3)c3ccc(O)c(c3)-c3c(O)cc(O)cc3C(C(=O)O)NC2=O)O[C@H](CO)[C@@H](O)[C@@H]1O", "note": "(stereo partly shown) [DM-TA2-3, de-mannosyl teicoplanin complex component 3]", "values": [
      {"measurement": "M.I.C.", "setting": "[1]", "value": 0.063, "unit": "microgram/ml"},
      {"measurement": "M.I.C.", "setting": "Strep. pyogenes L49 C203", "value": 0.063, "unit": "microgram/ml"},
      {"measurement": "M.I.C.", "setting": "[2]", "value": 0.063, "unit": "microgram/ml"},
      {"measurement": "M.I.C.", "setting": "[3]", "value": 0.063, "unit": "microgram/ml"},
      {"measurement": "M.I.C.", "setting": "[4]", "value": 0.063, "unit": "microgram/ml"},
      {"measurement": "M.I.C.", "setting": "[5]", "value": 32, "unit": "microgram/ml"},
      {"measurement": "M.I.C.", "setting": "[6]", "value": 64, "unit": "microgram/ml"},
      {"measurement": "M.I.C.", "setting": "[7]", "value": 0.5, "unit": "microgram/ml"}
    ]}
  ]
}
